Like-named read-outs stand apart in the source and are kept apart here. Starred links: 1 amine or outer side, 2 acyl side, 3 side chain; linkers in the order of their positions; H or OH if unused. Positions of bridges follow the written chain, without caps; N, C: chain ends. Non-standard residues stand in square brackets, D forms with d. Residues, ends and D or L forms follow the SMILES beside them. Oic = O=C(O)[C@@H]1C[C@@H]2CCCC[C@@H]2N1; X1 = O=C(C(O)CCN[*:1])[*:2]; Dab = NCC[C@H](N)C(=O)O
Legend:
[1] = Plasma stability in mouse plasma
Protocol: (§1) The stability of the peptides in human and mouse plasma was determined by applying the following method: 315 μL/deep well of freshly thawed human plasma (Basler Blutspende-dienst) and mouse plasma (Harlan Sera-Lab, UK), respectively, were spiked with 35 μL/well of compound in PBS (100 μM, triplicate) and incubated at 37° C. […] Following shaking for 2 min the occurred suspensions were filtrated by vacuum and finally, 100 μL of each filtrate were transferred to a propylene microtiter plate, and analyzed by LC/MS as follows: Column: Waters, XBridge C18, mobile phases: (A) water+0.1% formic acid and (B) acetonitrile/water, 95/5 (v/v)+0.1% formic acid, gradient: 5%-100% (B) in 2 minutes, electrospray ionization, MRM detection (triple quadrupole). The peak areas were determined and triplicate values are averaged. The stability is expressed in percent of the initial value at t=0. (tx/to×100). By using the TREND function of EXCEL (Microsoft Office 2003) T1/2 were determined.

human CXCR4 = biological target: T1, human CXCR4 (Homo sapiens, UniProt P61073); assay: Ca2+-assay: CXCR4-antagonizing activity (SDF-1 induced calcium mobilization); format: cell-based; conditions: mouse pre-B cell line 300-19 stably transfected with human CXCR4, read-out: IC50% [nM] ± SD, CXCR4 receptor
T1 construct: expressed in transfected cells; host or cells: mouse pre-B cell line 300-19
T1 sequence (P61073 whole entry): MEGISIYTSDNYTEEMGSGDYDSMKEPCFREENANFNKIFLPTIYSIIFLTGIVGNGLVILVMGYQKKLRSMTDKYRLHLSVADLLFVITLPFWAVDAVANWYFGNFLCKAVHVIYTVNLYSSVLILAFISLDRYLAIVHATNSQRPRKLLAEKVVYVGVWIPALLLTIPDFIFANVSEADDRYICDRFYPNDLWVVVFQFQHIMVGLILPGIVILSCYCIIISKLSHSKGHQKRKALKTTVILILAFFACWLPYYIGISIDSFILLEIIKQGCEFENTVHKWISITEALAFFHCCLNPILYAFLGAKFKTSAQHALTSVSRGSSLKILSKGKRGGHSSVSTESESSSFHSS
Source text: 2.3. Ca^2+-Assay: CXCR4-Antagonizing Activity of the Peptides
Increases in intracellular calcium were monitored using a Flexstation 384 (Molecular Devices, Sunnyvale, Calif.) to assay the depsipeptides for CXCR4 antagonism in a mouse pre-B cell line 300-19 stably transfected with human CXCR4 (E. Oberlin, A. Amara, F. Bachelerie, C. Bessia, J.-L. Virelizier, F. Arenzana-Seisdedos, O. Schwartz, J.-M. Heard, I. Clark-Lewis, D. F. Legler, M. Loetscher, M. Baggiolini, B. Moser, Nature 1996, 382, 833-835; M. Loetscher, T. Geiser, T. O'Reilly, R. Zwalen, M. Baggiolini, B. Moser, J. Biol. Chem. 1994, 269, 232-237; M. D'Apuuo, A. Rolink, M. Loetscher, J. A. Hoxie, I. Clark-Lewis, F. Melchors, M. Baggiolini, B. Moser, Eur. J. Immunol. 1997, 27, 1788-1793). The cells were batch loaded with the Calcium 4 Assay kit (Molecular Devices) in assay buffer (Hanks Balanced salt solution [HBSS], 20 mM HEPES, pH 7.4, 0.1% BSA) for 1 h at room temperature and labeled cells were dispensed into black 96 well assays plates (Costar No. 3603). Calcium mobilization induced by stromal-derived factor-1 (SDF-1) was measured in the Flexstation 384 (excitation: 485 nm; emission: 525 nm) for 90 seconds. Antagonist activity of peptides was determined by spiking the cells with compounds prior to SDF-1 addition. Dose response curves (compound concentration versus % maximum response for SDF-1) were determined for each antagonist and IC50 values were calculated by fitting the data to a four parameter logistic equation using SoftmaxPro 4.8 (Molecular Devices).

[2] = test system: human red blood cells (hRBC); conditions: red cells of human, 1 h
Protocol: The peptides were tested for their hemolytic activity against human red blood cells (hRBC). Fresh hRBC were washed three times with phosphate buffered saline (PBS) and centrifuged for 10 min at 2000×g. Compounds (100 μM) were incubated with 20% hRBC (v/v) for 1 h at 37° C. The final erythrocyte concentration was approximately 0.9×10^9 cells/mL. A value of 0% and 100% cell lyses, respectively, was determined by incubation of hRBC in the presence of PBS alone and 0.1% Triton X-100 in H2O, respectively. The samples were centrifuged, the supernatants were 20-fold diluted in PBS buffer and the optical densities (OD) were measured at 540 nm.
Percent hemolysis was calculated as follows: (OD540peptide/OD540H2O)×100%.

[3] = Plasma stability in human plasma
Protocol: as §1

in vitro [4] = format: cell-based
Protocol: (§2) The cytotoxicity of the depsipeptides to HELA cells (Acc57) and COS-7 cells (CRL-1651) was determined using the MTT reduction assay (T. Mossman, J. Immunol. Meth. 1983, 65, 55-63; M. V. Berridge, A. S. Tan, Arch. Biochem. Biophys. 1993, 303, 474-482). Briefly, the method was as follows: 7000 HELA cells/well and 4500 COS-7 cells/well were seeded and grown in 96-well microtiter plates for 24 h at 37° C. at 5% CO2. Thereafter, time zero (Tz) was determined by MTT reduction (see below). The supernatant of the remaining wells was discarded, and fresh medium and compounds in serial dilutions (12.5, 25 and 50 μM, triplicates) were pipetted into the wells. After incubation of the cells for 48 h at 37° C. at 5% CO2 the supernatant was discarded again and 100 μL MTT reagent (0.5 mg/mL in RPMI1640 and DMEM, respectively)/well was added. Following incubation at 37° C. for 2 h the media were aspirated and the cells were spiked (100 μL isopropanol/well). The absorbance of the solubilized formazan was measured at 595 nm (OD595peptide). For each concentration averages were calculated from triplicates. The percentage of growth was calculated as follows: (OD595peptide-OD595Tz-OD595Empty well)/(OD595Tz-OD595Empty well)×100%. The GI50 (Growth Inhibition) concentrations were calculated for each depsipeptide by using a trend line function for the concentrations (50, 25, 12.5 and 0 μM), the corresponding percentages and the value 50, (=TREND (C50:C0, %50:%0, 50).

in vitro [5] = format: cell-based; remark: listed apart in the source
Protocol: as §2

[6] = mouse plasma, 37° C., sampling up to 240 min
[7] = human plasma, 37° C., sampling up to 240 min

Row | Compound | Plasmastability mouse pl. T1/2 ([1]; mouse, plasma) [h] | IC50 (human CXCR4) [nM] | Hemolysis at 100 μM [2] [%] | Plasmastability human pl. T1/2 ([3]; human, plasma) [h] | GI50 (in vitro [4]) [µM] | GI50 (in vitro [5]) [µM] | Plasmastability mouse pl. T1/2 [1, 6] [h] | Plasmastability human pl. T1/2 [3, 7] [h] | GI50 (in vitro [4]; human) [µM] | GI50 (in vitro [5]; African green monkey) [µM]
1 | C[C@@H]1NC(=O)[C@H](Cc2c[nH]cn2)NC(=O)[C@H](Cc2ccc(O)cc2)NC(=O)[C@@H]2CCCN2C(=O)[C@H]2CCCN2C(=O)[C@H](CCCCN)NC(=O)[C@H](CCC(N)=O)NC(=O)[C@H](Cc2ccc(O)cc2)NC(=O)[C@@H]2CSSC[C@H](NC1=O)C(=O)NCCC(O)C(=O)N[C@@H](C)C(=O)N1CCC[C@@H]1C(=O)N[C@@H](CCN)C(=O)N[C@@H](CCCNC(=N)N)C(=O)N[C@@H](Cc1ccc(O)cc1)C(=O)N2 (stereo partly drawn) [compound 19] (cyclo(YHAC[X1]A[dP][Dab]RYCYQK[dP]P); disulfide 4-11) | 4 | 1.1 ± 0.6 | 1.8 | 4 | > 50 | > 50 | – | – | – | –
2 | CC[C@@H](C)[C@@H]1C(=O)N2CCC[C@H]2C(=O)N[C@@H](Cc2ccc(O)cc2)C(=O)N[C@@H](Cc2c[nH]cn2)C(=O)N[C@@H](C)C(=O)N[C@H]2CSSC[C@H](NC(=O)[C@H](Cc3ccc(O)cc3)NC(=O)[C@H](CCCNC(=N)N)NC(=O)[C@H](CCN)NC(=O)[C@H]3CCCN3C(=O)[C@H](C)NC(=O)[C@H](CO)NC2=O)C(=O)N[C@@H](Cc2ccc(O)cc2)C(=O)N[C@@H](CCC(N)=O)C(=O)N[C@@H](CCCCN)C(=O)N1C [compound 2] | – | 1.22 ± 1 | 0.6 | – | – | – | 4 | 4 | > 50 | > 50
3 | C[C@@H]1NC(=O)[C@H](Cc2c[nH]cn2)NC(=O)[C@H](Cc2ccc(O)cc2)NC(=O)[C@@H]2CCCN2C(=O)[C@@H](Cc2cn(Cc3ccccc3)cn2)NC(=O)[C@H](CCCCN)NC(=O)[C@H](CCC(N)=O)NC(=O)[C@H](Cc2ccc(O)cc2)NC(=O)[C@@H]2CSSC[C@H](NC1=O)C(=O)N[C@@H](CO)C(=O)N[C@@H](C)C(=O)N1CCC[C@@H]1C(=O)N[C@@H](CCN)C(=O)N[C@@H](CCCNC(=N)N)C(=O)N[C@@H](Cc1ccc(O)cc1)C(=O)N2 [compound 5] | – | 0.92 ± 0.2 | 1 | – | – | – | 4 | 4 | > 50 | > 50
4 | C[C@@H]1NC(=O)[C@H](Cc2c[nH]cn2)NC(=O)[C@H](Cc2ccc(O)cc2)NC(=O)[C@@H]2C[C@@H]3CCCC[C@@H]3N2C(=O)[C@H]2CCCN2C(=O)[C@H](CCCCN)NC(=O)[C@H](CCC(N)=O)NC(=O)[C@H](Cc2ccc(O)cc2)NC(=O)[C@@H]2CSSC[C@H](NC1=O)C(=O)N[C@@H](CO)C(=O)N[C@@H](C)C(=O)N1CCC[C@@H]1C(=O)N[C@@H](CCN)C(=O)N[C@@H](CCCNC(=N)N)C(=O)N[C@@H](Cc1ccc(O)cc1)C(=O)N2 [compound 16] (cyclo(ACSA[dP][Dab]RYCYQK[dP][Oic]YH); disulfide 2-9) | – | 1.46 ± 1.6 | 0.5 | – | – | – | 4 | 4 | > 50 | > 50
5 | C[C@@H]1NC(=O)[C@H](Cc2c[nH]cn2)NC(=O)[C@H](Cc2ccc(O)cc2)NC(=O)[C@@H]2CCCN2C(=O)[C@@H](Cc2ccncc2)NC(=O)[C@H](CCCCN)NC(=O)[C@H](CCC(N)=O)NC(=O)[C@H](Cc2ccc(O)cc2)NC(=O)[C@@H]2CSSC[C@H](NC1=O)C(=O)N[C@@H](CO)C(=O)N[C@@H](C)C(=O)N1CCC[C@@H]1C(=O)N[C@@H](CCN)C(=O)N[C@@H](CCCNC(=N)N)C(=O)N[C@@H](Cc1ccc(O)cc1)C(=O)N2 [compound 6] | – | 0.17 ± 0.1 | 2.4 | – | – | – | 4 | 4 | > 50 | > 50
6 | C[C@@H]1NC(=O)[C@H](Cc2c[nH]cn2)NC(=O)[C@H](Cc2ccc(O)cc2)NC(=O)[C@@H]2CCCN2C(=O)[C@@H](CCCCN)N(C)C(=O)[C@H](CCCCN)NC(=O)[C@H](CCC(N)=O)NC(=O)[C@H](Cc2ccc(O)cc2)NC(=O)[C@@H]2CSSC[C@H](NC1=O)C(=O)N[C@@H](CO)C(=O)N[C@@H](C)C(=O)N1CCC[C@@H]1C(=O)N[C@@H](CCN)C(=O)N[C@@H](CCCNC(=N)N)C(=O)N[C@@H](Cc1ccc(O)cc1)C(=O)N2 [compound 8] | – | 0.31 ± 0.2 | 0.3 | – | – | – | 4 | 4 | > 50 | > 50
